{"source": "ChEMBL document CHEMBL1152310", "about": "“A Dimeric sesquiterpenoid from a Malaysian Meiogyne as a new inhibitor of Bcl-xL/BakBH3 domain peptide interaction” (J Nat Prod, 2009)", "system": "KB", "assay": "Cytotoxicity against human KB cells", "assay_type": "functional, cell-based", "note": "pIC50: −log10 of the molar value.", "data": [{"compound": "CC(C)=CCC[C@@H](C)[C@H]1C=C[C@@]2(C(=O)O)[C@H](CC(C)=C[C@@H]2/C=C(\\C)C2CCC(C(=O)O)CC2)C1", "note": "(stereo partly specified) [MEIOGYNIN A]", "values": [{"measurement": "pIC50", "result": 5.40}]}]}
